# Data from paper PMC5613693, “Interactions of Desmethoxyyangonin, a Secondary Metabolite from Renealmia alpinia, with Human Monoamine Oxidase-A and Oxidase-B” (Evidence-based Complementary and Alternative Medicine : eCAM, 2017).
# Like-named read-outs stand apart in the source and are kept apart here.
# Experiments:
# Type in all cases: biochemical
# recombinant human MAO-B [1] = target: T1, recombinant human MAO-B (Homo sapiens, UniProt P27338); test: Fluorometric kynuramine deamination assay, MAO-B inhibition (IC50); conditions: for IC50: kynuramine 50 μM, mean ± SD of triplicate, read-out: Monoamine oxidase-B IC50; for Index MAO-A/B: ratio of IC50 MAO-A / IC50 MAO-B
# T1 construct: purchased BD Biosciences (Bedford, MA, USA); host or cells: baculovirus (Autographa californica) infected insect cells (BTI-TN-5B1-4)
# T1 sequence (P27338 1-520): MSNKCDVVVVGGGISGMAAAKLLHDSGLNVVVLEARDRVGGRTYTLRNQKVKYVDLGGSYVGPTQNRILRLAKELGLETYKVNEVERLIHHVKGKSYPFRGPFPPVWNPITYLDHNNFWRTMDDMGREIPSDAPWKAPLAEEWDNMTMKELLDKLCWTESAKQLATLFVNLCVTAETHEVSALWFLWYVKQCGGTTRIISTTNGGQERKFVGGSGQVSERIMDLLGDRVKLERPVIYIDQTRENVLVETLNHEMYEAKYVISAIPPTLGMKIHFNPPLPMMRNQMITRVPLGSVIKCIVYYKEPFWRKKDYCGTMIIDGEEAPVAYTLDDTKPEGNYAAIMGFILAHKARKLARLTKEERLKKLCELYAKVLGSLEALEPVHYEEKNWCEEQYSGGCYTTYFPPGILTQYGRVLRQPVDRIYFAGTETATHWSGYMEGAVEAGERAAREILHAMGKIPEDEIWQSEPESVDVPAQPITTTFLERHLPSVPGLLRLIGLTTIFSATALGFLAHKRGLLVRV
# Procedure: (§1) Pure recombinant human monoamine oxidases (MAO-A and MAO-B) enzymes overexpressed in baculovirus (Autographa californica) infected insect cells (BTI-TN-5B1-4) were purchased from BD Biosciences, (Bedford, MA, USA).
# (§2) Stock solutions of the test compounds/extracts were prepared in DMSO and diluted further in 0.1 M potassium phosphate buffer (pH 7.4) to obtain the desired concentrations. MAO-A and MAO-B activities were determined by fluorometric kynuramine deamination assay set up in 384-well solid white flat-bottom plates. MAO-A and MAO-B inhibition activities (IC50 values) were determined using fixed concentration of the substrate kynuramine and varying concentrations of the test compounds or extracts. The enzyme reactions were carried out in 0.1 M potassium phosphate buffer (pH-7.4). […] The reaction mixtures with buffer/substrate/inhibitor were preincubated for 10 minutes at 37°C, followed by addition of MAO-A and MAO-B to initiate the reaction. The solid white microplates were incubated for 20 minutes at 37°C and the enzymatic reaction was stopped by addition of 28 µL of 2 N NaOH to each well. The deaminated product of kynuramine, which spontaneously cyclizes to 4-hydroxyquinoline, was measured fluorometrically at 320 nm excitation and 380 nm emission wavelengths with a plate reader (SpectraMax M5, Molecular Devices, Sunnyvale, CA, USA). The IC50 values were computed by XL-Fit® from the dose-response inhibition curves.
# recombinant human MAO-A [2] = target: T2, recombinant human MAO-A (Homo sapiens, UniProt P21397); test: Fluorometric kynuramine deamination assay, MAO-A inhibition (IC50)
# T2 construct: purchased BD Biosciences (Bedford, MA, USA); host or cells: baculovirus (Autographa californica) infected insect cells (BTI-TN-5B1-4)
# T2 sequence (P21397 1-527): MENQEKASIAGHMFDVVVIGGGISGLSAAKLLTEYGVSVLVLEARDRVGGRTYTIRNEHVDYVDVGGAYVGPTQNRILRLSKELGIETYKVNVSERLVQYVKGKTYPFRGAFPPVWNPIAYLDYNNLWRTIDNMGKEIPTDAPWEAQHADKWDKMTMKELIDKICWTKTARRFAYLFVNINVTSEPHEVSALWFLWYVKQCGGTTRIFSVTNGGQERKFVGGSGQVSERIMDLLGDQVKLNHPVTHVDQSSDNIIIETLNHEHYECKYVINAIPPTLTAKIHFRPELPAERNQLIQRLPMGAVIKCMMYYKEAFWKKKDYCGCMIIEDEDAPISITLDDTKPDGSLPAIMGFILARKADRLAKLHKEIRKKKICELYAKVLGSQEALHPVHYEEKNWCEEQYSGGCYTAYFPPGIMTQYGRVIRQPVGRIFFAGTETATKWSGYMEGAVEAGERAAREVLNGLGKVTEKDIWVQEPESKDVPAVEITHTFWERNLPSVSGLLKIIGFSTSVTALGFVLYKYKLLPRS
# Procedure: as §1, §2
# recombinant human MAO-B [3] = target: T1, recombinant human MAO-B; test: Time-dependent enzyme inhibition assay, MAO-B; conditions: 0.40 μM, preincubation 0-15 min
# Procedure: (§3) MAO-A and MAO-B enzymes were preincubated for different time periods (0–15 min) with the inhibitor. […] Controls without inhibitors were also run simultaneously. The enzyme activities were determined as described above.
# (§4) The control enzymes without inhibitor were also run concurrently. […] The binding characteristics of desmethoxyyangonin 6 with MAO-A and MAO-B were examined by equilibrium dialysis to measure dissociation of the enzyme-inhibitor complex (Figure 6). MAO-A and MAO-B were incubated with high concentration of desmethoxyyangonin 6 for 20 minutes at 37°C to allow binding of inhibitor with the enzyme and formation of enzyme-inhibitor complex. The mixtures of enzyme-inhibitor complex were dialyzed overnight at 4°C against 25 mM KHPO4 (pH-7.4) buffer. The enzyme activities were examined before and after dialysis. Through overnight dialysis, the recombinant human MAO-A enzyme lost about 10–15% of activity. Incubation of MAO-A with 20.0 and 100 μM concentrations of desmethoxyyangonin 6 inhibited more than 65% of the enzyme activity (Figure 6). After the dialysis, more than 90% catalytic activity of MAO-A was recovered from enzyme-desmethoxyyangonin 6 incubation mixtures. Similarly, MAO-B lost about 10–15% of the enzyme activity during overnight dialysis.
# recombinant human MAO-A [4] = target: T2, recombinant human MAO-A; test: Equilibrium dialysis assay of enzyme-inhibitor complex, MAO-A
# Procedure: (§5) Binding and inhibition of MAO-A and MAO-B with desmethoxyyangonin 6 were further examined by incubating the enzyme with high concentrations of the inhibitor followed by extensive dialysis of the enzyme-inhibitor complex and recovery of enzyme activities. MAO-A (0.05 mg/mL protein) was incubated with desmethoxyyangonin 6 (20 μM and 100.0 μM) and MAO-B (0.05 mg/mL protein) was incubated with desmethoxyyangonin 6 (1.50 μM and 20.0 μM) in an enzyme incubation mixture of 1 mL containing 100 mM potassium phosphate buffer (pH 7.4). Formation of enzyme-inhibitor complex was allowed by incubation of the reaction mixtures for 20 min at 37°C. The enzyme-inhibitor mixtures after incubation were chilled, transferred to the dialysis bags, and dialyzed against 25 mM potassium phosphate buffer (pH 7.4) for 14–16 hours at 4°C (changing the dialysis buffer three times). The enzyme catalytic activities were measured before and after dialysis.
# as §4
# recombinant human MAO-A [5] = target: T2, recombinant human MAO-A; test: Time-dependent enzyme inhibition assay, MAO-A; conditions: 7.50 μM, preincubation 0-15 min
# Procedure: as §3, §4
# recombinant human MAO-B [6] = target: T1, recombinant human MAO-B; test: Enzyme kinetics and mechanism of inhibition of MAO-B; conditions: for Type of Inhibition, Monoamine oxidase-B: Lineweaver-Burk / dialysis; for Selectivity / higher affinity for MAO-B than MAO-A (by Ki): from Ki values
# Procedure: (§6) Results are presented as double reciprocal Lineweaver-Burk plots. The kinetic data, namely, KM, Vmax, and Ki values, were calculated by SigmaPlot 12.3 with enzyme-kinetics module using Michaelis-Menten equation. The results were also analyzed for the type of inhibition.
# (§7) To comprehend the type of inhibition, we examined 6 against both MAO-A and MAO-B at varying concentrations of kynuramine, a nonselective substrate. Desmethoxyyangonin 6 was tested at two concentrations: one above and the other below the IC50 value. For each experiment, three sets of assays were done at variable concentrations of the substrate: two concentrations of the inhibitor/compound and one control without inhibitors. The results are presented as double reciprocal Lineweaver-Burk plots and the kinetic data, namely, KM, Vmax, and Ki values, were computed by SigmaPlot 12.3 with enzyme-kinetics module using Michaelis-Menten equation (Table 2).
# recombinant human MAO-A [7] = target: T2, recombinant human MAO-A; test: Enzyme kinetics and mechanism of inhibition of MAO-A; conditions: Lineweaver-Burk / dialysis
# Procedure: as §6, §7
# recombinant human MAO-B [8] = target: T1, recombinant human MAO-B; test: Equilibrium dialysis assay of enzyme-inhibitor complex, MAO-B
# Procedure: as §5, §4
# [9] = kynuramine 80 μM, mean ± SD of triplicate, read-out: Monoamine oxidase-A IC50
# [10] = equilibrium dialysis dissociation
compound,measurement,setting,value
"COc1ccc([C@@H]2CC(=O)c3c(O)cc(OC)cc3O2)cc1 [4′-Methyl ether sakuranetin, 2, naringenin 7,4′-dimethyl ether]",IC50,recombinant human MAO-B [1],> 100 µM
same,IC50,recombinant human MAO-A [2]; [9],31.4 ± 4.58 µM
"COc1cc(/C=C/c2ccccc2)oc(=O)c1 [Desmethoxyyangonin, 6, desmethoxyyangonin]",Time dependence of MAO-B inhibition,recombinant human MAO-B [3],not time-dependent
same,Preferential inhibition of MAO-B than MAO-A (by IC50),recombinant human MAO-B [1]; from IC50 values,15 fold
same,IC50,recombinant human MAO-B [1],0.123 µM
same,Inhibition of MAO-A enzyme activity before dialysis,"recombinant human MAO-A [4]; 20.0 and 100 μM, 20 min at 37°C",more than 65%
same,Catalytic activity of MAO-A recovered after dialysis,"recombinant human MAO-A [4]; 20.0 and 100 μM, overnight dialysis at 4°C",more than 90%
same,Reversibility of MAO-A inhibition,recombinant human MAO-A [4]; [10],reversible binding
same,Time dependence of MAO-A inhibition,recombinant human MAO-A [5],not time-dependent
same,"Type of Inhibition, Monoamine oxidase-B",recombinant human MAO-B [6],Competitive/reversible
same,"Type of Inhibition, Monoamine oxidase-B",recombinant human MAO-B [6]; listed as 6,competitive
same,Selectivity / higher affinity for MAO-B than MAO-A (by Ki),recombinant human MAO-B [6]; listed as Compound 6,about 30 fold
same,Selectivity / higher affinity for MAO-B than MAO-A (by Ki),recombinant human MAO-B [6]; listed as desmethoxyyangonin 6,29 fold
same,MAO inhibition in words,recombinant human MAO-A [2]; MAO-A and MAO-B inhibition assays,potent MAO inhibition
same,IC50,recombinant human MAO-A [2]; [9],1.85 ± 0.086 µM
same,"Type of Inhibition, Monoamine oxidase-A",recombinant human MAO-A [7],Mixed/reversible
same,"Type of Inhibition, Monoamine oxidase-A",recombinant human MAO-A [7]; listed as desmethoxyyangonin 6,mixed inhibitor
same,Inhibition of MAO-B enzyme activity before dialysis,"recombinant human MAO-B [8]; 1.50 and 20.0 μM, 20 min at 37°C",more than 90%
same,Recovery of MAO-B enzyme activity after dialysis,"recombinant human MAO-B [8]; 1.50 and 20.0 μM, overnight dialysis at 4°C",fully recovered
same,Reversibility of MAO-B inhibition,recombinant human MAO-B [8]; [10],reversible binding
"COc1cc(O)c(C(=O)/C=C/c2ccccc2)c(O)c1 [Pinostrobin chalcone, 4, 2′,6′-dihydroxy-4′-methoxychalcone]",IC50,recombinant human MAO-B [1],10 ± 3.24 µM
same,IC50,recombinant human MAO-A [2]; [9],6.33 ± 0.206 µM
"COc1cc(O)c2c(c1)O[C@H](c1ccccc1)CC2=O [Pinostrobin, 1, pinostrobin]",IC50,recombinant human MAO-B [1],45.5 ± 4.31 µM
same,Index MAO-A/B,recombinant human MAO-B [1],0.524
same,IC50,recombinant human MAO-A [2]; [9],23.9 ± 1.35 µM
"COc1cc(O)c2c(c1)O[C@H](c1ccc(O)cc1)CC2=O [Sakuranetin, 3, naringenin 7-methyl ether]",IC50,recombinant human MAO-B [1],36.5 ± 6.63 µM
same,Index MAO-A/B,recombinant human MAO-B [1],1.246
same,IC50,recombinant human MAO-A [2],45.5 ± 5.71 µM
"O[C@H](CCc1ccccc1)C[C@@H](O)CCc1ccccc1 [Yashabushidiol A, 5, 3,5-heptanediol-1,7-diphenyl]",IC50,recombinant human MAO-B [1],35.38 ± 0.121 µM
same,IC50,recombinant human MAO-A [2]; [9],> 100 µM
